Results taken from patent US10912815B2, “Inhibitors of mitochondrial fission and methods of use thereof” (The Board of Trustees of the Leland Stanford Junior …, priority 2011, dated 2021).
No end group written: not given here.

Tests used:
Mfn1 = target: T1, Mfn1 (Homo sapiens, UniProt Q8IWA4); test: In vitro GTPase assay, recombinant Mfn1; format: biochemical; settings: recombinant Mfn1 25 ng, FIG. 2B
T1 sequence (Q8IWA4 1-741): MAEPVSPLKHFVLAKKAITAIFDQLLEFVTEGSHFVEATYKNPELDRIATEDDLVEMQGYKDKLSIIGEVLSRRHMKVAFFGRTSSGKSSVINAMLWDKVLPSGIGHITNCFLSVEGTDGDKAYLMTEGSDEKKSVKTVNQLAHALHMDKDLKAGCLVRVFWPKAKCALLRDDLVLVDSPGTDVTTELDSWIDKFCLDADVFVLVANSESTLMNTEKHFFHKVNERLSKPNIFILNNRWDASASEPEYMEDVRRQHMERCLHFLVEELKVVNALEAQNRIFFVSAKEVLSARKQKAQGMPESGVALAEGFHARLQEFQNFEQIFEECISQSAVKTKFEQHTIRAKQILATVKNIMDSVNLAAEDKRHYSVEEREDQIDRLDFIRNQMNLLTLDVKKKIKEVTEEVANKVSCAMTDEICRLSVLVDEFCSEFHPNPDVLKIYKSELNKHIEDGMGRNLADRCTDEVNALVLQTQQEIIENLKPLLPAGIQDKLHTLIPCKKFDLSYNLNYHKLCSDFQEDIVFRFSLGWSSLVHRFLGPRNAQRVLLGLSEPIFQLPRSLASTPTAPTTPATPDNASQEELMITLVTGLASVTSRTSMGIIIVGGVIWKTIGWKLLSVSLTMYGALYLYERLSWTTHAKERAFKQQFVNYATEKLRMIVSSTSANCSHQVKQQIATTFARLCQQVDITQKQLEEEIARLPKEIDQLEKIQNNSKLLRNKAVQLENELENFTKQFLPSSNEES
Procedure: First, mitochondrial fission inhibitor constructs were tested to determine what, if any, effects each peptide had on enzyme (GTPase) activity. Recombinant protein Drp1, Mfn1, OPA1 or dynamin-1 (25 ng) was incubated with the indicated modulator peptides for 30 min. GTPase activity was assayed in vitro using a GTPase assay kit (Innova Biosciences, Littleton, USA, or Novus Biologicals, Littleton, Colo.) according to manufacturer's instructions.

Drp1 = Drp1 translocation to mitochondria in SH-SY5Y cells (western blot of mitochondrial fractions); format: cell-based, human
Procedure: Cultured human SH-SY5Y neuronal cells were treated with peptide P110 (1 μM) for 30 min prior to 1 hr incubation in the absence or presence of MPP+(1-methyl-4-phenylpyridinium, a specific mitochondrial complex I inhibitor) (2 mM) or CCCP (carbonyl cyanide m-chloro phenyl hydrazone) (10 μM). Western blot analysis of mitochondrial fractions was determined by the indicated antibodies. VDAC was used as a loading control.
In another experiment, mitochondria were isolated from SH-SY5Y neuronal cells exposed to MPP+ in the absence or presence of P110. Mitochondrial fractions were subjected to Western blot analysis. The levels of Drp1, Fis1, Mff, Mfn1 (mitofisinl) and OPA1 in the mitochondrial fractions were determined. Voltage-dependent […] (VDAC), a marker of mitochondria, was used as internal loading controls. Quantitative data from three independent experiments are provided a the histogram, with data shown as mean±S.E (FIG. 3D).

SH-SY5Y cells [1] = test: Mitochondrial membrane potential in SH-SY5Y cells (TMRM); format: cell-based, human; settings: SH-SY5Y in the presence of MPP+ or CCCP, FIG. 6B
Procedure: The effects of MPP+ or CCCP on translocation of Drp1 in the absence and presence of P110 was measured using confocal microscopy. Cultured SH-SY5Y cells in black 96-well plate were treated with Drp1 peptide inhibitor P110 (1 μM) 30 min prior to treatment of MPP+ (2 mM) or CCCP (5 uM). After 2 hrs of treatment, cells were stained with MITOSOX™ (red mitochondrial superoxide indicator) (5 uM, for 10 min, mitochondrial ROS) or TMRM (0.5 uM, for 20 min, MMP) at 37° C. For total ROS detection, cells were treated with MPP+ or CCCP for 24 hrs. ROS level was measured by CM-H2DCFDA (1 μM for 30 min, Invitrogen). Cells were washed with PBS for three times. The detection was performed in a fluorescence microplate reader (Tecan, Infinite M1000) according to manufacturer's instructions. Measurements were normalized to the cell number counted using Hoechst staining.
Mitochondrial membrane potential was also determined using TMRM (tetramethylrhodamine methylester). […] Fluoresence detection was performed using black 96-well plates in a fluorescence microplate reader at 560 nm excitation and 690 nm emission and potential was assessed by quenching of the fluorescent signal. […] A kinetic change of mitochondrial superoxide production was determined by using MITOSOX™ (red mitochondrial superoxide indicator). […]

[2] = test system: isolated mouse liver mitochondria with Drp1 recombinant protein; test: Cytochrome c levels in isolated mouse liver mitochondria incubated with Drp1; format: biochemical; settings: 8 min of Drp1 incubation, FIG. 6D top
Procedure: Mitochondrial membrane potential was also determined using TMRM (tetramethylrhodamine methylester). Fifty μg of mitochondria were incubated with recombinant Drp1 (50 ng) followed by incubation with TMRM (0.5 μM) in the presence or absence of P110 (1 μM) or NAC (2.5 mM). Fluoresence detection was performed using black 96-well plates in a fluorescence microplate reader at 560 nm excitation and 690 nm emission and potential was assessed by quenching of the fluorescent signal. The data are presented as mean±S.E. of percentage relative to control mitochondria from three independent experiments (FIG. 6B, #, p<0.05 vs. control cells; *, p<0.05; **, P<0.01 vs. MPP+- or CCCP-treated cells). Isolated mouse liver mitochondria (50 μg) were incubated with Drp1 recombinant protein (50 ng) in the presence or absence of P110 (1 μM). A kinetic change of mitochondrial superoxide production was determined by using MITOSOX™ (red mitochondrial superoxide indicator). […] Mitochondrial membrane potential of isolated mouse liver mitochondria was determined by TMRM, as described above, in the indicated groups. […] Protein levels of cytochrome c in the mitochondria were determined by western blot analysis with anti-cytochrome c antibodies in the indicated groups (insert, FIG. 6D). Total ROS production was determined by staining SH-SY5Y cells with CM2HDCFA (1 μM […] at 37° C.) in the indicated groups. […]

SH-SY5Y cells [3] = test system: SH-SY5Y cells
Procedure: Cell viability of stressed SH-SY5Y cells was measured by MTT assay.
In another experiment, Human SH-SY5Y cells were treated with Drp1 P108, P109 or P110 or Fis1 P111, P112 or P113 (0.5 μM) for 15 min followed by treatment with MPP+(1 mM for 24 hrs). The cell viability was then determined by MTT test.

## RRRQRRKKRGYGGDLLPRGS (RRRQRRKKRGYGGDLLPRGS-NH2) [P110]
Mfn1
  effect on GTPase activity of Mfn1 (mitofusin 1): no effects
Drp1; P110 1 μM 30 min before MPP+, CCCP, H2O2 or rotenone, FIG. 3A, 3B
  levels of Drp1 associated with the mitochondrial fractions under stress: abolished the increased levels of Drp1
Drp1; SH-SY5Y, MPP+, FIG. 3C, 3D
  cellular level and distribution of other mitochondrial dynamics-related proteins (MFN-1/2, OPA1, Fis1): did not affect
Drp1; SH-SY5Y, MPP+, p<0.01, n=3, FIG. 3C, 3D
  reduction of MPP+-induced translocation of Drp1 from cytosol to the mitochondria: more than 60%
SH-SY5Y cells [1]
  mitochondrial membrane potential (MMP): significantly recovered
[2]
  cytochrome c release from the mitochondria: inhibited cytochrome c release
SH-SY5Y cells [3]; peptides 0.5 μM 15 min, MPP+ 1 mM for 24 hrs, n=7-8, FIG. 9F
  mitochondrial damage and neuronal cell death (MTT): reduced mitochondrial damage and neuronal cell death
SH-SY5Y cells [3]; peptides 1 μM each, MPP+ 2 mM for 24 hours, FIG. 9E
  cell viability (MTT): improved cell viability
